Data reported in US7601686B2, “Hepatitis C virus inhibitors” (Bristol-Myers Squibb Company, priority 2005, dated 2009).
Read-outs that look alike come from different tables or passages of the source.

Experiments:
[1] = molecular target: T1, HCV NS3/4A protease complex, BMS strain (UniProt P27958, species not given/STRAIN_BMS); experiment: FRET peptide assay to monitor HCV NS3/4A proteolytic activity (BMS strain); format: biochemical, Hepatitis C virus (genotype 1a)
T1 construct: DNA encoding the recombinant HCV NS3/4A protease complex (amino acids 1027 to 1711) for these strains [H77 and J4L6S]; fused on or other part: For the H77 and J4L6S constructs, a three-lysine solubilising tail at the NS4A C-terminus and a Ni-NTA-purifiable tag from pET21b
T1 sequence (P27958 1027-1657, stated change not applied, one chain of several): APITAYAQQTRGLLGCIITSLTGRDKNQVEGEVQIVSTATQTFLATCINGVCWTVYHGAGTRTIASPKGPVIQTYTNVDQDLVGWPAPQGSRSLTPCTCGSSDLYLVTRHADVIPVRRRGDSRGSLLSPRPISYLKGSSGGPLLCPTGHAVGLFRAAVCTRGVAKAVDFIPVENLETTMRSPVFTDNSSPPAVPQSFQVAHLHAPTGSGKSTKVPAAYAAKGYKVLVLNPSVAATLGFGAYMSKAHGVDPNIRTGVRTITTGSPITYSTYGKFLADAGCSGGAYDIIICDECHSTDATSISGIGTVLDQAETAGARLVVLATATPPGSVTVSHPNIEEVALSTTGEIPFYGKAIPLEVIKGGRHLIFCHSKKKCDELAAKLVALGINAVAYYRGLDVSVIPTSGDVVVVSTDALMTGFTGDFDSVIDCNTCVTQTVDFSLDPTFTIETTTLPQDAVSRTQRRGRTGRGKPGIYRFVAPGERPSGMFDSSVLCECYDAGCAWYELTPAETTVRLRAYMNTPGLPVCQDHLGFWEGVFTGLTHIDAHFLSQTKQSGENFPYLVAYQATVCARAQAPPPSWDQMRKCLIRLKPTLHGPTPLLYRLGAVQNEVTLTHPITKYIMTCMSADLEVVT
Text: Generation of Recombinant HCV NS3/4A Protease Complex
HCV NS3 protease complexes, derived from the BMS strain, H77 strain or J4L6S strain, were generated, as described below. These purified recombinant proteins were generated for use in a homogeneous assay (see below) to provide an indication of how effective compounds of the present disclosure would be in inhibiting HCV NS3 proteolytic activity.
Serum from an HCV-infected patient was obtained from Dr. T. Wright, San Francisco Hospital. An engineered full-length cDNA (compliment deoxyribonucleic acid) template of the HCV genome (BMS strain) was constructed from DNA fragments obtained by reverse transcription-PCR (RT-PCR) of serum RNA (ribonucleic acid) and using primers selected on the basis of homology between other genotype 1a strains. From the determination of the entire genome sequence, a genotype 1a was assigned to the HCV isolate according to the classification of Simmonds et al. (See P Simmonds, K A Rose, S Graham, S W Chan, F McOmish, B C Dow, E A Follett, P L Yap and H Marsden, J. Clin. Microbiol., 31(6), 1493-1503 (1993)). […] The infectious clones, H77 (1a genotype) and J4L6S (1b genotype) were obtained from R. Purcell (NIH) and the sequences are published in Genbank (AAB67036, see Yanagi, M., Purcell, R. H., Emerson, S. U. and Bukh, J. Proc. Natl. Acad. Sci. U.S.A. 94(16), 8738-8743 (1997); AF054247, see Yanagi, M., St Claire, M., Shapiro, M., Emerson, S. U., Purcell, R. H. and Bukh, J, Virology 244 (1), 161-172. (1998)).
The H77 and J4L6S strains were used for production of recombinant NS3/4A protease complexes. DNA encoding the recombinant HCV NS3/4A protease complex (amino acids 1027 to 1711) for these strains were manipulated as described by P. Gallinari et al. (see Gallinari P, Paolini C, Brennan D, Nardi C, Steinkuhler C, De Francesco R. Biochemistry. 38(17):5620-32, (1999)). Briefly, a three-lysine solubilizing tail was added at the 3′-end of the NS4A coding region. The cysteine in the P1 position of the NS4A-NS4B cleavage site (amino acid 1711) was changed to a glycine to avoid the proteolytic cleavage of the lysine tag. Furthermore, a cysteine to serine mutation was introduced by PCR at amino acid position 1454 to prevent the autolytic cleavage in the NS3 helicase domain. The variant DNA fragment was cloned in the pET21b bacterial expression vector (Novagen) and the NS3/4A complex was expressed in Escherichia coli strain BL21 (DE3) (Invitrogen) following the protocol described by P. Gallinari et al. (see Gallinari P, Brennan D, Nardi C, Brunetti M, Tomei L, Steinkuhler C, De Francesco R., J. Virol. 72(8):6758-69 (1998)) with modifications. Briefly, the NS3/4A protease complex expression was induced with 0.5 millimolar (mM) Isopropyl β-D-1-thiogalactopyranoside (IPTG) for 22 hours (h) at 20° C. A typical fermentation (1 Liter (L)) yielded approximately 10 grams (g) of wet cell paste. The cells were resuspended in lysis buffer (10 mL/g) consisting of 25 mM N-(2-Hydroxyethyl)piperazine-N′-(2-Ethane Sulfonic acid) (HEPES), pH 7.5, 20% glycerol, 500 mM Sodium Chloride (NaCl), 0.5% Triton X-100, 1 microgram/milliliter (“μg/mL”) lysozyme, 5 mM Magnesium Chloride (MgCl2), 1 μg/mL DnaseI, 5 mM β-Mercaptoethanol (βME), Protease inhibitor—Ethylenediamine Tetraacetic acid (EDTA) free (Roche), homogenized and incubated for 20 minutes (min) at 4° C. The homogenate was sonicated and clarified by ultra-centrifugation at 235000 g for 1 h at 4° C. Imidazole was added to the supernatant to a final concentration of 15 mM and the pH adjusted to 8.0. The crude protein extract was loaded on a Nickel—Nitrilotriacetic acid (Ni-NTA) column pre-equilibrated with buffer B (25 mM HEPES, pH 8.0, 20% glycerol, 500 mM NaCl, 0.5% Triton X-100, 15 mM imidazole, 5 mM βME). The sample was loaded at a flow rate of 1 mL/min. The column was washed with 15 column volumes of buffer C (same as buffer B except with 0.2% Triton X-100). […]

[2] = test system: HCV replicon in HUH-7 cells; experiment: HCV replicon FRET assay; format: cell-based, Hepatitis C virus (strain 1b); conditions: Hepatitis C virus
Text: Generation of HCV Replicon
An HCV replicon whole cell system was established as described by Lohmann V, Korner F, Koch J, Herian U, Theilmann L, Bartenschlager R., Science 285(5424):110-3 (1999). This system enabled us to evaluate the effects of our HCV Protease compounds on HCV RNA replication. Briefly, using the HCV strain 1b sequence described in the Lohmann paper (Assession number:AJ238799), an HCV cDNA was synthesized by Operon Technologies, Inc. (Alameda, Calif.), and the full-length replicon was then assembled in plasmid pGem9zf(+) (Promega, Madison, Wis.) using standard molecular biology techniques. The replicon consists of (i) the HCV 5′ UTR fused to the first 12 amino acids of the capsid protein, (ii) the neomycin phosphotransferase gene (neo), (iii) the IRES from encephalomyocarditis virus (EMCV), and (iv) HCV NS3 to NS5B genes and the HCV 3′ UTR. Plasmid DNAs were linearized with ScaI and RNA transcripts were synthesized in vitro using the T7 MegaScript transcription kit (Ambion, Austin, Tex.) according to manufacturer's directions. In vitro transcripts of the cDNA were transfected into the human hepatoma cell line, HUH-7. […] Resulting cell lines were characterized for positive and negative strand RNA production and protein production over time.
The HCV replicon FRET assay was developed to monitor the inhibitory effects of compounds described in the disclosure on HCV viral replication. HUH-7 cells, constitutively expressing the HCV replicon, were grown in Dulbecco's Modified Eagle Media (DMEM) (Gibco-BRL) containing 10% Fetal calf serum (FCS) (Sigma) and 1 mg/mL G418 (Gibco-BRL). Cells were seeded the night before (1.5×10^4 cells/well) in 96-well tissue-culture sterile plates. Compound and no compound controls were prepared in DMEM containing 4% FCS, 1:100 Penicillin/Streptomysin (Gibco-BRL), 1:100 L-glutamine and 5% DMSO in the dilution plate (0.5% DMSO final concentration in the assay). Compound/DMSO mixes were added to the cells and incubated for 4 days at 37° C. After 4 days, cells were first assessed for cytotoxicity using alamar Blue (Trek Diagnotstic Systems) for a CC50 reading. The toxicity of compound (CC50) was determined by adding 1/10th volume of alamar Blue to the media incubating the cells. After 4 h, the fluorescence signal from each well was read, with an excitation wavelength at 530 nm and an emission wavelength of 580 nm, using the Cytofluor Series 4000 (Perspective Biosystems). Plates were then rinsed thoroughly with Phosphate-Buffered Saline (PBS) (3 times 150 μl).

[3] = NS3/4A BMS strain, enzyme assay; read-out: IC 50 Range
[4] = HCV replicon cell assay, HUH-7, read-out: EC50 Range
[5] = read-out: IC 50 Range; NS3/4A BMS strain, enzyme assay

Structure (SMILES) | IC50 [1, 3] [µM] | EC50 [2, 4] [µM] | IC50 [1, 5] [µM] | EC50 ([2]; Huh-7, read-out: EC50 Range) [µM]
C=CC1CC1(NC(=O)[C@@H]1C[C@@H](NC(=O)NCc2ccccc2)CN1C(=O)[C@@H](NC(=O)OC(C)(C)C)C(C)(C)C)C(=O)NS(=O)(=O)C1CC1 (some centres unmarked) [Compound 44] | 0.15 to 15 | > 15 | – | –
C=CC1CC1(NC(=O)[C@@H]1C[C@@H](N2Cc3ccccc3C2)CN1C(=O)[C@@H](NC(=O)C1CC1)C(C)(C)C)C(=O)NS(=O)(=O)C1CC1 (some centres unmarked) [Compound 57] | 0.15 to 15 | – | – | –
C=CC1CC1(NC(=O)[C@@H]1C[C@@H](NC(=O)c2cc3ccccc3cn2)CN1C(=O)[C@@H](NC(=O)CC1CC1)C(C)(C)C)C(=O)NS(=O)(=O)C1CC1 (some centres unmarked) [Compound 28] | < 0.15 | 0.15 to 15 | – | –
C=CC1CC1(NC(=O)[C@@H]1C[C@@H](NC(=O)c2cccc3c2OCC3)CN1C(=O)[C@@H](NC(=O)CC1CC1)C(C)(C)C)C(=O)NS(=O)(=O)C1CC1 (some centres unmarked) [Compound 30] | 0.15 to 15 | > 15 | – | –
C=CC1CC1(NC(=O)[C@@H]1C[C@@H](NC(=O)c2cc3ccccc3s2)CN1C(=O)[C@@H](NC(=O)CC1CC1)C(C)(C)C)C(=O)NS(=O)(=O)C1CC1 (some centres unmarked) [Compound 32] | < 0.15 | 0.15 to 15 | – | –
C=CC1CC1(NC(=O)[C@@H]1C[C@@H](NC(=O)OC2=NCc3ccccc32)CN1C(=O)[C@@H](NC(=O)CC1CC1)C(C)(C)C)C(=O)NS(=O)(=O)C1CC1 (some centres unmarked) [Compound 52] | – | 0.15 to 15 | < 0.15 | –
C=CC1CC1(NC(=O)[C@@H]1C[C@@H](NS(=O)(=O)c2cccc3c(N(C)C)cccc23)CN1C(=O)[C@@H](NC(=O)OC(C)(C)C)C(C)(C)C)C(=O)NS(=O)(=O)C1CC1 (some centres unmarked) [Compound 49] | 0.15 to 15 | > 15 | – | –
C=CC1CC1(NC(=O)[C@@H]1C[C@@H](NCc2ccnc3ccccc23)CN1C(=O)[C@@H](NC(=O)OC(C)(C)C)C(C)(C)C)C(=O)NS(=O)(=O)C1CC1 (some centres unmarked) [Compound 47] | < 0.15 | > 15 | – | –
C=CC1CC1(NC(=O)[C@@H]1C[C@@H](N(C)C(=O)c2cc(-c3ccccc3)nc3ccccc23)CN1C(=O)[C@@H](NC(=O)OC(C)(C)C)C(C)(C)C)C(=O)NS(=O)(=O)C1CC1 (some centres unmarked) [Compound 42] | 0.15 to 15 | – | – | –
C=CC1CC1(NC(=O)[C@@H]1C[C@@H](NC(=O)c2cnc(N3CCCCC3)nc2-c2ccccc2)CN1C(=O)[C@@H](NC(=O)CC1CC1)C(C)(C)C)C(=O)NS(=O)(=O)C1CC1 (some centres unmarked) [Compound 23] | 0.15 to 15 | – | – | –
C=CC1CC1(NC(=O)[C@@H]1C[C@@H](NC(=O)n2ccc3ccccc32)CN1C(=O)[C@@H](NC(=O)CC1CC1)C(C)(C)C)C(=O)NS(=O)(=O)C1CC1 (some centres unmarked) [Compound 51] | – | – | < 0.15 | 0.15 to 15
C=CC1CC1(NC(=O)[C@@H]1C[C@@H](NC(=O)c2sc3ccccc3c2Cl)CN1C(=O)[C@@H](NC(=O)CC1CC1)C(C)(C)C)C(=O)O (single isomer, unassigned) [Compound 2, 1-({4-[(3-Chloro-benzo[b]thiophene-2-carbonyl)-amino]-1-[2-(2-cyclopropyl-acetylamino)-3,3-dimethyl-butyryl]-pyrrolidine-2-carbonyl}-amino)-2-vinyl-cyclopropanecarboxylic acid] | > 15 | – | – | –
C=CC1CC1(NC(=O)[C@@H]1C[C@@H](N2C(=O)c3ccccc3C2=O)CN1C(=O)[C@@H](NC(=O)CC1CC1)C(C)(C)C)C(=O)NS(=O)(=O)C1CC1 (some centres unmarked) [Compound 58] | – | > 15 | 0.15 to 15 | –
C=CC1CC1(NC(=O)[C@@H]1C[C@@H](NC(=O)c2sc3ccccc3c2Cl)CN1C(=O)[C@@H](NC(=O)CC1CC1)C(C)(C)C)C(=O)O (single isomer, unassigned) [Compound 1, 1-({4-[(3-Chloro-benzo[b]thiophene-2-carbonyl)-amino]-1-[2-(2-cyclopropyl-acetylamino)-3,3-dimethyl-butyryl]-pyrrolidine-2-carbonyl}-amino)-2-vinyl-cyclopropanecarboxylic acid] | 0.15 to 15 | – | – | –
C=CC1CC1(NC(=O)[C@@H]1C[C@@H](NC(=O)c2ccncc2)CN1C(=O)[C@@H](NC(=O)CC1CC1)C(C)(C)C)C(=O)NS(=O)(=O)C1CC1 (some centres unmarked) [Compound 15] | 0.15 to 15 | – | – | –
C=CC1CC1(NC(=O)[C@@H]1C[C@@H](N2CCN(Cc3ccccc3)CC2)CN1C(=O)[C@@H](NC(=O)OC)C(C)(C)C)C(=O)NS(=O)(=O)C1CC1 (some centres unmarked) [Compound 56] | > 15 | – | – | –
C=CC1CC1(NC(=O)[C@@H]1C[C@@H](NC(=O)c2ccnc3ccccc23)CN1C(=O)[C@@H](NC(=O)CC1CC1)C(C)(C)C)C(=O)NS(=O)(=O)C1CC1 (some centres unmarked) [Compound 11] | 0.15 to 15 | – | – | –
C=CC1CC1(NC(=O)[C@@H]1C[C@@H](NC(=S)Nc2cccc3ccccc23)CN1C(=O)[C@@H](NC(=O)OC(C)(C)C)C(C)(C)C)C(=O)NS(=O)(=O)C1CC1 (some centres unmarked) [Compound 46] | – | – | 0.15 to 15 | –
C=CC1CC1(NC(=O)[C@@H]1C[C@@H](NC(=O)c2c(OC)cccc2OC)CN1C(=O)[C@@H](NC(=O)CC1CC1)C(C)(C)C)C(=O)NS(=O)(=O)C1CC1 (some centres unmarked) [Compound 36] | 0.15 to 15 | – | – | –
C=CC1CC1(NC(=O)[C@@H]1C[C@@H](NC(=O)N2CCc3ccccc3C2)CN1C(=O)[C@@H](NC(=O)CC1CC1)C(C)(C)C)C(=O)NS(=O)(=O)C1CC1 (some centres unmarked) [Compound 54] | – | – | 0.15 to 15 | –
